Test results from publication PMC7339037 (Journal of medicinal chemistry, 2017).

What was measured:
[1] = target: RPA (replication protein A) (Homo sapiens, UniProt P27694); test: RPA-based EMSA; format: binding; conditions: at 10 μM
Solubility = format: physicochemical
full length human XPA = full length human XPA (Homo sapiens, UniProt P23025); test: EMSA, binding of full length human XPA to a cisplatin-modified DNA
Sequence of full length human XPA (P23025 whole entry): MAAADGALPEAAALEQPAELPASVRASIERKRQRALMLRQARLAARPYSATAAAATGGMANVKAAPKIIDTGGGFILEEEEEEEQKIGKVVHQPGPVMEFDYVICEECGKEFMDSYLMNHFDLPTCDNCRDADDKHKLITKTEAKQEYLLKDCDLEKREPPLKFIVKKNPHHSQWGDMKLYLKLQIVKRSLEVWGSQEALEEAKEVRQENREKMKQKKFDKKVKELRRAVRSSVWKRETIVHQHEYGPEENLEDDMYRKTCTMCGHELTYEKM

Sequence of RPA (replication protein A) (P27694 whole entry): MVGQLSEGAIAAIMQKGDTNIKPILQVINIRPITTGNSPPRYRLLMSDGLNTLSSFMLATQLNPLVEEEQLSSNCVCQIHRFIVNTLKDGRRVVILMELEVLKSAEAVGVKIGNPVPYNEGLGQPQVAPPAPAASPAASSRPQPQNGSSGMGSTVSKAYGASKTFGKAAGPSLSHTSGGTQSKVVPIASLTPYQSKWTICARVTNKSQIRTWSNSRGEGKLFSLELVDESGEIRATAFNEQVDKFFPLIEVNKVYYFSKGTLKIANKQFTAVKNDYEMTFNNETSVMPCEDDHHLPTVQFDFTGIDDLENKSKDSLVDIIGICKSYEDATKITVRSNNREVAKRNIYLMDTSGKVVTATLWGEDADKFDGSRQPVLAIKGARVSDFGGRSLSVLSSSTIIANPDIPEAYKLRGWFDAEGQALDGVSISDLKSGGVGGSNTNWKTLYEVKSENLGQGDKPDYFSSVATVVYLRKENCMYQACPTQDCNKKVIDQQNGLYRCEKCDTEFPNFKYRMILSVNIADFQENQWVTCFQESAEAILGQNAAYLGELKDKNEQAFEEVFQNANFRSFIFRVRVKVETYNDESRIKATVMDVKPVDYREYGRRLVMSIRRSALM

| Compound | RPA inhibition [1] | solubility (in words) (Solubility) | XPA inhibitory activity (in words) (full length human XPA) |
| --- | --- | --- | --- |
| CC1=NN(c2ccc(C(=O)O)cc2)C(=O)/C1=C\c1ccc(-c2ccc(Cl)c(C(=O)NCc3ccc(F)cc3)c2)o1 [Compound 34i, (Z)-4-(4-((5-(4-Chloro-3-((4-fluorobenzyl)carbamoyl)phenyl)-furan-2-yl)methylene)-3-methyl-5-oxo-4,5-dihydro-1H-pyrazol-1-yl)benzoic Acid] | no RPA inhibition |  |  |
| CC1=NN(c2ccc(Cl)c(C(=O)O)c2)C(=O)/C1=C\c1ccc(-c2ccc(Cl)c(C(=O)OCc3ccccc3)c2)o1 [Compound 22] | no RPA inhibition | poor solubility |  |
| CCOC(=O)c1cccc(N2N=C(C)/C(=C/c3ccc(-c4ccc(Cl)c(C(=O)NCc5ccc(F)cc5)c4)o3)C2=O)c1 [Compound 33a, (Z)-Ethyl 3-(4-((5-(4-Chloro-3-((4-fluorobenzyl)carbamoyl)phenyl)furan-2-yl)-methylene)-3-methyl-5-oxo-4,5-dihydro-1H-pyrazol-1-yl)benzoate] |  |  | dramatically decreased or almost no XPA inhibitory activity |
| CC1=NN(c2cccc(C(=O)NCC3CC3)c2)C(=O)/C1=C\c1ccc(-c2ccc(Cl)c(C(=O)NCC3CC3)c2)o1 [Compound 34e, (Z)-2-Chloro-N-(cyclopropylmethyl)-5-(5-((1-(3-((cyclopropylmethyl)carbamoyl)phenyl)-3-methyl-5-oxo-1H-pyrazol-4(5H)-ylidene)methyl)furan-2-yl)-benzamide] |  |  | dramatically decreased or almost no XPA inhibitory activity |
| CC1=NN(c2cccc(C(=O)O)c2)C(=O)/C1=C\c1ccc(-c2ccc(Cl)c(C(=O)NCc3ccc(F)cc3)c2)o1 [Compound 34a, (Z)-3-(4-((5-(4-Chloro-3-((4-fluorobenzyl)carbamoyl)phenyl)furan-2-yl)methylene)-3-methyl-5-oxo-4,5-dihydro-1H-pyrazol-1-yl)-benzoic Acid] |  | dramatically increased solubility |  |
| CC1=NN(c2cccc(C(=O)O)c2)C(=O)/C1=C\c1ccc(-c2ccc(C(=O)NCC3CC3)cc2)o1 [Compound 39b, (Z)-3-(4-((5-(4-((Cyclopropylmethyl)carbamoyl)phenyl)furan-2-yl)methylene)-3-methyl-5-oxo-4,5-dihydro-1H-pyrazol-1-yl)benzoic Acid] |  |  | no XPA inhibitory activity |
| CC1=NN(c2cccc(C(=O)O)c2)C(=O)/C1=C\c1ccc(-c2ccc(C(=O)NCc3ccc(F)cc3)cc2)o1 [Compound 39a, (Z)-3-(4-((5-(4-((4-Fluorobenzyl)carbamoyl)phenyl)furan-2-yl)-methylene)-3-methyl-5-oxo-4,5-dihydro-1H-pyrazol-1-yl)benzoic Acid] |  |  | no XPA inhibitory activity |
| CC1=NN(c2ccc(C(=O)O)cc2)C(=O)/C1=C\c1ccc(-c2ccc(Cl)c(C(=O)NCC3CC3)c2)o1 [Compound 34k, (Z)-4-(4-((5-(4-Chloro-3-((cyclopropylmethyl)carbamoyl)phenyl)-furan-2-yl)methylene)-3-methyl-5-oxo-4,5-dihydro-1H-pyrazol-1-yl)benzoic Acid] | no RPA inhibition |  |  |
| CC1=NN(c2ccc(Cl)c(C(=O)O)c2)C(=O)/C1=C\c1ccc(-c2ccc(Cl)c(C(=O)OCc3ccccc3Cl)c2)o1 [Compound 24] | no RPA inhibition | poor solubility |  |
